This experiment addresses EGFR (UniProt P00533). Nature of the experiment: Inhibition of EGFR Kinase Activity.
Sequence of EGFR (P00533 whole entry, looked up): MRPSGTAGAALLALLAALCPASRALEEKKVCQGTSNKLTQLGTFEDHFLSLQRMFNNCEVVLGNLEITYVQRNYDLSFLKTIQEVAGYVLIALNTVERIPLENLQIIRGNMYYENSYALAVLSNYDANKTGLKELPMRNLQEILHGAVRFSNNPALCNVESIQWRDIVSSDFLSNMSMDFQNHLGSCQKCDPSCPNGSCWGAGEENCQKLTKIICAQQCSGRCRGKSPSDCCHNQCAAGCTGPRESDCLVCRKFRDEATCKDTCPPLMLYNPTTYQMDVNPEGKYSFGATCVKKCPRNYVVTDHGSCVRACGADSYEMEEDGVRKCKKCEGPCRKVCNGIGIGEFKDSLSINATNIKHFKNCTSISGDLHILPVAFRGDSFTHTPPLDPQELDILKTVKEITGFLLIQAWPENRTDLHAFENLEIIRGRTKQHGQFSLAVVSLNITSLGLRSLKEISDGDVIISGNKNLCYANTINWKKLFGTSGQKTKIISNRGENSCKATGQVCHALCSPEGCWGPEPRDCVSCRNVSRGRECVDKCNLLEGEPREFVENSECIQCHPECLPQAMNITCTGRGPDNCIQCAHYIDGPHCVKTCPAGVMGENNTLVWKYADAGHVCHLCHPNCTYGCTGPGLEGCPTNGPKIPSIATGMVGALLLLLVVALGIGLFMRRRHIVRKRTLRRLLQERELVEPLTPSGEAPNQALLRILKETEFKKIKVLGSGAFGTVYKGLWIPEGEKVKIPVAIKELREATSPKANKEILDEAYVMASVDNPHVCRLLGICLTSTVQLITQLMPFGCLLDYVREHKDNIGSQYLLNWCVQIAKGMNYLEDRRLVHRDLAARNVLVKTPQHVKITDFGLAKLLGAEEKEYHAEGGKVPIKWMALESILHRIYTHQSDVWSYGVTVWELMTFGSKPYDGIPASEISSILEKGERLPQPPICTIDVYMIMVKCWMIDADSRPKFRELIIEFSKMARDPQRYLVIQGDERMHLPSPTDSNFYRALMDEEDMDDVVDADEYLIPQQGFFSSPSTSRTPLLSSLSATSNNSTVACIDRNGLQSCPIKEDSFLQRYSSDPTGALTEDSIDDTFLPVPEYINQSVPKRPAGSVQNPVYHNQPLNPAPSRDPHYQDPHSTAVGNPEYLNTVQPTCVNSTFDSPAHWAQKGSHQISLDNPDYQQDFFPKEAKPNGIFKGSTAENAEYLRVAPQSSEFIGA
With `C=CC(=O)Nc1ccc(Nc2ncnc(N(CC)c3ccc(OC)c(OCCOC)c3)n2)cc1`, the IC50 was below 50 µM.
In turn, `C=CC(=O)Nc1cccc(Nc2ncnc(N(CC)c3ccc(OC)c(OC)c3)n2)c1` had an IC50 below 50 µM.
`C=CC(=O)Nc1cccc(Nc2ncnc(Nc3ccc4nc(Cc5ccccc5)[nH]c4c3)n2)c1`: the IC50 was below 50 µM.
The value for `C=CC(=O)Nc1cccc(Nc2ncnc(N(C)c3ccc4c(ccn4Cc4ccccc4)c3)n2)c1` was below 50 µM.
The value for `C=CC(=O)Nc1cccc(Nc2ncnc(N(C)c3ccc(OCCO)cc3)n2)c1` was below 50 µM; that for `C=CCN(c1cccc(S(=O)(=O)c2ccc([N+](=O)[O-])cc2)c1)c1ncnc(Nc2cccc(NC(=O)C#CC)c2)n1` was below 50 µM; that for `C=CCN(c1cccc(Cl)c1)c1ncnc(Nc2ccc(NC(=O)C=C)cc2)n1` was below 50 µM.
The value for `C=CC(=O)Nc1ccc(Nc2ncnc(Nc3ccc(OC)c(OC)c3)n2)cc1` was below 50 µM.
On to `C=CC(=O)Nc1cccc(Nc2ncnc(Nc3ccc(OCc4ccc(F)c(F)c4)c(F)c3)n2)c1`, for which the concentration for half-maximal inhibition (IC50) is below 50 µM.
As for `CC#CC(=O)Nc1cccc(Nc2ncnc(n2)N(CC=C)c3ccc4NN(=Cc4c3)Cc5ccccn5)c1`, the figure is below 50 µM; as for `CC#CC(=O)Nc1cccc(Nc2ncnc(Nc3ccc(OCc4ccccc4)cc3)n2)c1`, below 50 µM.
`C=CC(=O)Nc1ccc(Nc2ncnc(N(CC)c3cccc(Cl)c3)n2)cc1` displayed an IC50 below 50 µM.
In turn, `C=CC(=O)Nc1cccc(Nc2ncnc(Nc3ccc(OC)c(OC)c3)n2)c1` had an IC50 below 50 µM.
The molecule `C=CC(=O)N(CCCN1CCOCC1)c1cccc(Nc2ncnc(Nc3cc(Cl)ccc3C)n2)c1` registered an IC50 below 50 µM.
As for `CC#CC(=O)Nc1cccc(Nc2ncnc(N(CC)c3cc(Cl)cc4ccccc34)n2)c1`, the figure is below 50 µM.
Turning to `C=CC(=O)Nc1ccc(Nc2ncnc(Nc3cc(OC)c(OC)c(OCCN4CCOCC4)c3)n2)cc1`, the IC50 was below 50 µM.
Take `C=CC(=O)Nc1cc(Nc2ncnc(Nc3cccc(Cl)c3)n2)ccc1OCCCC1CCN(C)CC1`: the IC50 was below 50 µM.
The value for `C=CC(=O)N(CCCN1CCOCC1)c1cccc(Nc2ncnc(Nc3ccc(OC)c(OC)c3)n2)c1` was below 50 µM; that for `C=CCN(c1ccc(OC)c(OCCOC)c1)c1ncnc(Nc2cccc(NC(=O)C=C)c2)n1` was below 50 µM.
The molecule `C=CC(=O)Nc1cccc(Nc2ncnc(Nc3ccc(C(=O)OC)cc3)n2)c1` showed an IC50 below 50 µM.
The value for `C=CC(=O)Nc1cc(Nc2ncnc(Nc3cccc(Cl)c3)n2)ccc1OCCCN1CCOCC1` was below 50 µM.
In turn, `C=CCN(c1ccc(OCCC)c(OCCC)c1)c1ncnc(Nc2cccc(NC(=O)C#CC)c2)n1` gave an IC50 below 50 µM.
The molecule `CC#CC(=O)Nc1cccc(Nc2ncnc(Nc3cccc(Cl)c3)n2)c1` came in with an IC50 below 50 µM.
As for `CC#CC(=O)Nc1cccc(Nc2ncnc(Nc3ccc(OCC)c(OCC)c3)n2)c1`, the figure is below 50 µM; as for `C=CC(=O)Nc1ccc(Nc2ncnc(NC3CC3c3ccc(Cl)cc3)n2)cc1` (stereo not given), below 50 µM.
Consider `CC#CC(=O)Nc1cccc(Nc2ncnc(Nc3ccc(C(=O)OC)cc3)n2)c1`, for which the IC50 was below 50 µM.
Turning to `CC#CC(=O)Nc1cc(Nc2ncnc(N(C)c3ccc4c(cnn4Cc4ccccc4)c3)n2)ccc1OCCCC1CCN(C)CC1`, the IC50 was below 50 µM.
As for `C=CC(=O)Nc1cccc(Nc2ncnc(Nc3ccc(OCc4ccccc4Br)c(Cl)c3)n2)c1`, the figure is below 50 µM.
On to `CC#CC(=O)Nc1cccc(Nc2ncnc(Nc3cccc(S(=O)(=O)c4ccc([N+](=O)[O-])cc4)c3)n2)c1`, for which the IC50 was below 50 µM.
The molecule `C=CCN(c1cccc(C)c1)c1ncnc(Nc2cccc(NC(=O)C=C)c2)n1` registered an IC50 below 50 µM.
In turn, `C=CC(=O)Nc1ccc(Nc2ncnc(Nn3c(=O)n(C(=O)C(C)(C)C)c4ccccc43)n2)cc1` returned a half-inhibitory concentration (IC50) below 50 µM.
The value for `CC#CC(=O)Nc1cc(Nc2ncnc(N(C)c3cccc(Cl)c3)n2)ccc1OCCCN1CCOCC1` was below 50 µM.
As for `C=CC(=O)Nc1ccc(Nc2ncnc(N(C)c3ccc4c(ccn4Cc4ccccc4)c3)n2)cc1`, the figure is below 50 µM; as for `C=CC(=O)Nc1ccc(Nc2ncnc(NN3CCCc4ccc(C(F)(F)F)cc43)n2)cc1`, below 50 µM; as for `C=CCN(c1ccc(OC)c(OC)c1)c1ncnc(Nc2ccc(NC(=O)C=C)cc2)n1`, below 50 µM.
As for `C=CC(=O)Nc1ccc(Nc2ncnc(N(C)c3cc(OC)c(OC)c(OCCN4CCOCC4)c3)n2)cc1`, the figure is below 50 µM; as for `CC#CC(=O)Nc1cccc(Nc2ncnc(Nc3ccc4c(ccn4Cc4ccccc4)c3)n2)c1`, below 50 µM; as for `C=CC(=O)Nc1ccc(Nc2ncnc(N(CC)c3cc(Cl)ccc3C)n2)cc1`, below 50 µM.
On to `C=CC(=O)Nc1cccc(Nc2ncnc(Nc3cccc(S(=O)(=O)c4ccc([N+](=O)[O-])cc4)c3)n2)c1`, for which the IC50 is below 50 µM.
The value for `CC#CC(=O)Nc1cccc(Nc2ncnc(N(C)C3CC3c3ccccc3)n2)c1` (stereo not given) was below 50 µM.
In turn, `CC#CC(=O)Nc1cccc(Nc2ncnc(N(C)c3cccc(C)c3)n2)c1` had an IC50 below 50 µM.
The value for `C=CCC(=O)Nc1cccc(Nc2ncnc(Nc3cccc(Cl)c3)n2)c1` was below 50 µM; that for `CC#CC(=O)Nc1cccc(Nc2ncnc(Nc3cccc(CC(=O)OC)c3)n2)c1` was below 50 µM; that for `C=CC(=O)Nc1ccc(Nc2ncnc(N(CC)c3cc(OC)c(OC)c(OCCN4CCOCC4)c3)n2)cc1` was below 50 µM.
As for `C=CC(=O)N(CCCN1CCOCC1)c1cccc(Nc2ncnc(N(C)c3ccc4c(cnn4Cc4ccccc4)c3)n2)c1`, the figure is below 50 µM; as for `C=CC(=O)Nc1cccc(Nc2ncnc(N(C)c3cccc4ccccc34)n2)c1`, below 50 µM; as for `C/C=C/C(=O)Nc1cccc(Nc2ncnc(NC3CC3c3ccccc3)n2)c1` (stereo not given), below 50 µM.
Turning to `C=CC(=O)Nc1ccc(Nc2ncnc(Nc3cccc(Cl)c3)n2)cc1`, the IC50 is below 50 µM.
Take `CC#CC(=O)Nc1cc(Nc2ncnc(N(C)c3ccc4c(ccn4Cc4ccccc4)c3)n2)ccc1OCCCC1CCN(C)CC1`: the IC50 is below 50 µM.
The value for `C=CC(=O)Nc1ccc(Nc2ncnc(N(CC)c3cccc(C(N)=O)c3)n2)cc1` was below 50 µM; that for `C=CC(=O)Nc1cccc(Nc2ncnc(Nc3ccc4c(cnn4Cc4cccc(F)c4)c3)n2)c1` was below 50 µM; that for `C=CC(=O)Nc1cc(Nc2ncnc(N(C)c3ccc4c(cnn4Cc4ccccc4)c3)n2)ccc1OCCCN1CCOCC1` was below 50 µM.
The value for `CC#CC(=O)Nc1cc(Nc2ncnc(N(C)c3ccc4c(cnn4Cc4ccccc4)c3)n2)ccc1OCCCN1CCOCC1` was below 50 µM.
`C=CCN(c1ccc(F)c(Cl)c1)c1ncnc(Nc2cccc(NC(=O)C#CC)c2)n1` displayed an IC50 below 50 µM.
As for `CC#CC(=O)Nc1cccc(Nc2ncnc(N(CC)c3ccc(OCCO)cc3)n2)c1`, the figure is below 50 µM.
`C=CCN(c1cc(OC)c(OC)c(OCCN2CCOCC2)c1)c1ncnc(Nc2cccc(NC(=O)C=C)c2)n1` returned an IC50 below 50 µM.
`C=CC(=O)Nc1ccc(Nc2ncnc(N(CC)c3cccc(S(=O)(=O)c4ccc([N+](=O)[O-])cc4)c3)n2)cc1` had a half-maximal inhibitory concentration (IC50) below 50 µM.
As for `C=CC(=O)Nc1cccc(Nc2ncnc(N(C)c3cc(OC)c(OC)c(OCCN4CCOCC4)c3)n2)c1`, the IC50 is below 50 µM.
The value for `C=CC(=O)Nc1cccc(Nc2ncnc(Nc3ccc(OCc4cccc(F)c4)c(Cl)c3)n2)c1` was below 50 µM; that for `C=CCN(c1ccc(OC)c(OCCOC)c1)c1ncnc(Nc2cccc(NC(=O)C#CC)c2)n1` was below 50 µM.
`C=CC(=O)Nc1cccc(Nc2ncnc(Nc3ccc(S(=O)(=O)c4ccccc4)cc3)n2)c1` showed an IC50 below 50 µM.
The value for `C=CC(=O)Nc1cccc(Nc2ncnc(Nc3cccc(Cl)c3)n2)c1` was below 50 µM; that for `CCN(c1ccc2NN(=Cc2c1)Cc3ccccn3)c4ncnc(Nc5ccc(NC(=O)C=C)cc5)n4` was below 50 µM; that for `C=CC(=O)N(CCCN1CCOCC1)c1cccc(Nc2ncnc(Nc3cc(Cl)cc4ccccc34)n2)c1` was below 50 µM.
The value for `CC#CC(=O)Nc1cccc(Nc2ncnc(N(CC)n3c(=O)n(C(=O)C(C)(C)C)c4ccccc43)n2)c1` was below 50 µM.
As for `C=CCN(c1ncnc(Nc2cccc(NC(=O)C=C)c2)n1)C1CC1c1ccccc1` (stereo not given), the figure is below 50 µM.
In turn, `C#CCC(=O)Nc1cccc(Nc2ncnc(NN3CCCc4c(Cl)cccc43)n2)c1` registered an IC50 below 50 µM.
The value for `CC#CC(=O)Nc1cccc(Nc2ncnc(Nc3ccc4NN(=Cc4c3)Cc5ccccn5)n2)c1` was below 50 µM; that for `CC#CC(=O)Nc1cccc(Nc2ncnc(Nc3ccc(OCCOC)c(OC)c3)n2)c1` was below 50 µM; that for `CC#CC(=O)Nc1cccc(Nc2ncnc(N(CC)c3ccc(OC)c(OC)c3)n2)c1` was below 50 µM.
As for `C=CC(=O)Nc1ccc(Nc2ncnc(NC3CC3c3ccccc3)n2)cc1` (stereo not given), the figure is below 50 µM.
The value for `C=CC(=O)Nc1ccc(Nc2ncnc(N(C)C3CC3c3ccc(Cl)cc3)n2)cc1` (stereo not given) was below 50 µM; that for `CC#CC(=O)Nc1cccc(Nc2ncnc(n2)N(C)c3ccc4NN(=Cc4c3)Cc5ccccn5)c1` was below 50 µM; that for `C=CC(=O)Nc1cccc(Nc2ncnc(N(C)C3CC3c3ccccc3)n2)c1` (stereo not given) was below 50 µM.
As to `CC#CC(=O)Nc1cccc(Nc2ncnc(N(C)c3ccc(OC)c(OC)c3)n2)c1`, the IC50 was below 50 µM.
With `C=CC(=O)Nc1ccc(Nc2ncnc(Nc3ccc4c(ccn4Cc4ccccc4)c3)n2)cc1`, the IC50 is below 50 µM.
As for `C=CC(=O)Nc1ccc(Nc2ncnc(Nc3cccc4ccccc34)n2)cc1`, the IC50 was below 50 µM.
Regarding `C=CC(=O)Nc1cccc(Nc2ncnc(N(CC)c3cccc4ccccc34)n2)c1`, the IC50 was below 50 µM.
As for `C=CCN(c1cc(OC)c(OC)c(OCCN2CCOCC2)c1)c1ncnc(Nc2cccc(NC(=O)C#CC)c2)n1`, the figure is below 50 µM; as for `C=CC(=O)Nc1cccc(Nc2ncnc(N(C)c3ccc(OCC)c(OCC)c3)n2)c1`, below 50 µM.

The IC50 is the concentration needed to halve the response being measured. Low values mean greater potency, high ones weaker potency.

The values are drawn from the Kinase Knowledgebase extract (Sharma et al. 2016).
